Laboratory results published in patent US8268827B2, “Pyridazinone derivatives as PARP inhibitors” (Istituto di Ricerche di Biologia Molecolare P. Angeletti …, priority 2007, dated 2012).
pIC50: −log10 of the molar value. Structures can show the parent of a compound that is named as a salt.

Experiments:
PARP-1 = target: T1, PARP-1 (Homo sapiens, UniProt P09874); assay: PARP-1 SPA assay; assay type: biochemical
T1 construct: purchased Trevigen 4668-500-01
Protocol: Assay buffer: 100 mM Tris pH 8, 4 mM MgCl2, 4 mM Spermine, 200 mM KCl, 0.04% Nonidet P-40.
Nicotinamide-adenine dinucleotide (NAD)/DNA Mix: [^3H-NAD] (250 uCi/ml, 0.4 ul, Perkin-Elmer NET-443H), NAD (1.5 mM, 0.05 ul, SIGMA N-1511), Biotinylated-NAD (250 uM, 0.03 ul, Trevigen 4670-500-01), Activated calf thymus (1 mg/ml, 0.05 ul, Amersham Biosciences 27-4575), H2O (to 10 ul).
Developing Mix: Streptavidin SPA beads (5 mg/ml, Amersham Biosciences RPNQ 0007) dissolved in 500 mM EDTA.
The reaction is performed in 96-well microplate with a final volume of 50 uL/well. Add 5 ul 5% DMSO/compound solution, add enzyme mix (35 ul), start the reaction by adding NAD/DNA mix (10 uL) and incubate for 2 hrs at RT. Stop the reaction by adding developing mix (25 ul) and incubate 15 min at RT. Measure using a Packard TOP COUNT instrument.

[1] = system: BRCA-1 silenced HeLa cells (HeLa shBRCA1-GFP); assay: Proliferation assay in BRCA-1 silenced HeLa cells; assay type: cell-based; conditions: Homo sapiens; BRCA1 silenced HeLa cells, 168 hours; read-out: CC50 in the BRCA1 silenced HeLa cells
Method in brief: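 HeLa cells with lentiviral shRNA BRCA1 knockdown (>80%), compared with control-vector HeLa, seeded at 300 cells/well. Compound exposure lasted 168 h at 37° C. Viability was read as resazurin-to-resorufin fluorescence (ex 550/em 590 nm).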

T1 sequence (P09874 whole entry): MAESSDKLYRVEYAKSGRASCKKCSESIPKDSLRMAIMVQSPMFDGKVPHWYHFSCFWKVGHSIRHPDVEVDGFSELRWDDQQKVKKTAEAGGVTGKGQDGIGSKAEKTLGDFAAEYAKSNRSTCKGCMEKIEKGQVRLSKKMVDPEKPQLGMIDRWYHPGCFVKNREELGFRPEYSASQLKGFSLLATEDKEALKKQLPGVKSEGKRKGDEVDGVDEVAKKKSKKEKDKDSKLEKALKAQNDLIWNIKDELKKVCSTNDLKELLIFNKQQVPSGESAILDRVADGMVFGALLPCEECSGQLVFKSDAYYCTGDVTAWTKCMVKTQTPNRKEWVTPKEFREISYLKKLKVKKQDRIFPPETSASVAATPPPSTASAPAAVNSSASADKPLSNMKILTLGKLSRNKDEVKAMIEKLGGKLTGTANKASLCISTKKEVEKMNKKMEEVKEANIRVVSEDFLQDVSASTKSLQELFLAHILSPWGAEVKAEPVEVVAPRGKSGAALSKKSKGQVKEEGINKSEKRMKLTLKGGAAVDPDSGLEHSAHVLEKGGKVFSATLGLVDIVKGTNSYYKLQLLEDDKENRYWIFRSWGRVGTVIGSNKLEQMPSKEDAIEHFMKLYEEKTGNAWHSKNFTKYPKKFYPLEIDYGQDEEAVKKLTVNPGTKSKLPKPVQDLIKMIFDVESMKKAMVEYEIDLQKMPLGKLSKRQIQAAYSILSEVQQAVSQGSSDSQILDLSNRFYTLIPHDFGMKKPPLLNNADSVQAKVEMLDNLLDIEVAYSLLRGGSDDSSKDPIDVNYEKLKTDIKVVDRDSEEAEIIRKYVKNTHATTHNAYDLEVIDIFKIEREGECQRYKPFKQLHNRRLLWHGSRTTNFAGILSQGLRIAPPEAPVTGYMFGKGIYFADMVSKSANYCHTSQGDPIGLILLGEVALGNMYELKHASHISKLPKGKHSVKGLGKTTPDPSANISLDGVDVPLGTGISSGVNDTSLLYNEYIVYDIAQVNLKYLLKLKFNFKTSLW

SMILES | pIC50 (PARP-1) | CC50 [1]
Cc1c(Cc2ccc(F)c(C(=O)N3CCN(C4CC(F)(F)C4)C(=O)C3)c2)n[nH]c(=O)c1C [Example 55, 6-(3-{[4-(3,3-Difluorocyclobutyl)-3-oxopiperazin-1-yl]carbonyl}-4-fluorobenzyl)-4,5-dimethyl-3-oxo-2,3-dihydropyridazin-1-ium trifluoroacetate] | 7.60 to 8.30 | 0.05 to 0.5 µM
Cc1c(Cc2ccc(F)c(C(=O)N3CCN(CC4(c5ccccc5)CCOCC4)C(=O)C3)c2)n[nH]c(=O)c1C [Example 56, 6-[4-Fluoro-3-({3-oxo-4-[(4-phenyltetrahydro-2H-pyran-4-yl)methyl]piperazin-1-yl}carbonyl)benzyl]-4,5-dimethyl-3-oxo-2,3-dihydropyridazin-1-ium trifluoroacetate] | 7.60 to 8.30 | < 5 µM
Cc1c(Cc2ccc(F)c(C(=O)N3CCN(C4CCC4)C(=O)C3)c2)n[nH]c(=O)c1C [Example 57, 6-{3-[(4-Cyclobutyl-3-oxopiperazin-1-yl)carbonyl]-4-fluorobenzyl}-4,5-dimethyl-3-oxo-2,3-dihydropyridazin-1-ium trifluoroacetate] | 7.60 to 8.30 | 0.05 to 0.5 µM
Cc1c(Cc2ccc(F)c(C(=O)N3CCN(CCc4cccc(F)c4)C(=O)C3)c2)n[nH]c(=O)c1C [Example 59, 6-[4-Fluoro-3-({4-[2-(3-fluorophenyl)ethyl]-3-oxopiperazin-1-yl}carbonyl)benzyl]-4,5-dimethyl-3-oxo-2,3-dihydropyridazin-1-ium trifluoroacetate] | > 8.30 | 0.05 to 0.5 µM
Cc1c(Cc2ccc(F)c(C(=O)N3CCN(c4cnc5ccccc5c4)C(=O)C3)c2)n[nH]c(=O)c1C [Example 60, 6-{4-Fluoro-3-[(3-oxo-4-quinolin-3-ylpiperazin-1-yl)carbonyl]benzyl}-4,5-dimethylpyridazin-3(2H)-one] | > 8.30 | < 0.05 µM
Cc1c(Cc2ccc(F)c(C(=O)N3CCN(c4cc(C(F)(F)F)ccn4)C(=O)C3)c2)n[nH]c(=O)c1C [Example 61, 3-[4-Fluoro-3-({3-oxo-4-[4-(trifluoromethyl)pyridin-2-yl]piperazin-1-yl}carbonyl)benzyl]-4,5-dimethyl-6-oxo-1,6-dihydropyridazin-1-ium trifluoroacetate] | 7.60 to 8.30 | 0.05 to 0.5 µM
Cc1c(Cc2ccc(F)c(C(=O)N3CCN([C@@H]4CCCC[C@H]4c4ccccc4)C(=O)C3)c2)n[nH]c(=O)c1C [Example 67, 6-[4-Fluoro-3-({3-oxo-4-[(1R,2S)-2-phenylcyclohexyl]piperazin-1-yl}carbonyl)benzyl]-4,5-dimethyl-3-oxo-2,3-dihydropyridazin-1-ium trifluoroacetate] | 7.60 to 8.30 | 0.05 to 0.5 µM
Cc1c(Cc2ccc(F)c(C(=O)N3CCN(CC(F)(F)F)C(=O)C3)c2)n[nH]c(=O)c1C [Example 72, 6-(4-Fluoro-3-{[3-oxo-4-(2,2,2-trifluoroethyl)piperazin-1-yl]carbonyl}benzyl)-4,5-dimethyl-3-oxo-2,3-dihydropyridazin-1-ium trifluoroacetate] | 7.60 to 8.30 | 0.05 to 0.5 µM
Cc1c(Cc2ccc(F)c(C(=O)N3CCN(C4CCCCCC4)C(=O)C3)c2)n[nH]c(=O)c1C [Example 73, 6-{3-[(4-Cycloheptyl-3-oxopiperazin-1-yl)carbonyl]-4-fluorobenzyl}-4,5-dimethyl-3-oxo-2,3-dihydropyridazin-1-ium trifluoroacetate] | > 8.30 | < 0.05 µM
Cc1c(Cc2ccc(F)c(C(=O)N3CCN(C4CCOC(C)(C)C4)C(=O)C3)c2)n[nH]c(=O)c1C (stereo not drawn) [Example 76, 6-(3-{[4-(2,2-Dimethyltetrahydro-2H-pyran-4-yl)-3-oxopiperazin-1-yl]carbonyl}-4-fluorobenzyl)-4,5-dimethylpyridazin-3(2H)-one trifluoroacetate] | > 8.30 | < 5 µM
Cc1c(Cc2ccc(F)c(C(=O)N3CC(=O)N(c4ccccc4)C(C)(C)C3)c2)n[nH]c(=O)c1C [Example 77, 6-{3-[(3,3-Dimethyl-5-oxo-4-phenylpiperazin-1-yl)carbonyl]-4-fluorobenzyl}-4,5-dimethylpyridazin-3(2H)-one] | > 8.30 | < 0.05 µM
O=C(c1cc(Cc2cc(C(F)(F)C(F)(F)F)c(=O)[nH]n2)ccc1F)N1CCN(C2CCCC2)C(=O)C1 [Example 81, 6-{3-[(4-Cyclopentyl-3-oxopiperazin-1-yl)carbonyl]-4-fluorobenzyl}-4-(pentafluoroethyl)pyridazin-3(2H)-one] | 7.60 to 8.30 | 0.05 to 0.5 µM
Cc1c(Cc2ccc(F)c(C(=O)N3CC(=O)N4CCCC[C@@H]4C3)c2)n[nH]c(=O)c1C [Example 90, (9aR)-2-{5-[(4,5-Dimethyl-6-oxo-1,6-dihydropyridazin-3-yl)methyl]-2-fluorobenzoyl}octahydro-4H-pyrido[1,2-a]pyrazin-4-one trifluoroacetate] | > 8.30 | < 0.05 µM
Cc1c(Cc2ccc(F)c(C(=O)N3CCN(c4ccc(C#N)cc4)C(=O)C3)c2)n[nH]c(=O)c1C [Example 94, 3-(3-{[4-(4-Cyanophenyl)-3-oxopiperazin-1-yl]carbonyl}-4-fluorobenzyl)-4,5-dimethyl-6-oxo-1,6-dihydropyridazin-1-ium trifluoroacetate] | > 8.30 | 0.05 to 0.5 µM
Cc1c(Cc2ccc(F)c(C(=O)N3CCN(c4ccc(S(C)(=O)=O)cc4)C(=O)C3)c2)n[nH]c(=O)c1C [Example 95, 3-[4-Fluoro-3-({4-[4-(methylsulfonyl)phenyl]-3-oxopiperazin-1-yl}carbonyl)benzyl]-4,5-dimethyl-6-oxo-1,6-dihydropyridazin-1-ium trifluoroacetate] | > 8.30 | 0.05 to 0.5 µM
Cc1c(Cc2ccc(F)c(C(=O)N3CCN(C(c4cccnc4)C(F)F)C(=O)C3)c2)n[nH]c(=O)c1C (stereo not drawn) [Example 96, 6-(3-{[4-(2,2-difluoro-1-pyridin-3-ylethyl)-3-oxopiperazin-1-yl]carbonyl}-4-fluorobenzyl)-4,5-dimethyl-3-oxo-2,3-dihydropyridazin-1-ium trifluoroacetate] | 7.60 to 8.30 | < 5 µM
Cc1c(Cc2ccc(F)c(C(=O)N3CCN(CC4(C)CCCO4)C(=O)C3)c2)n[nH]c(=O)c1C (stereo not drawn) [Example 97, 6-[4-fluoro-3-({4-[(2-methyltetrahydrofuran-2-yl)methyl]-3-oxopiperazin-1-yl}carbonyl)benzyl]-4,5-dimethyl-3-oxo-2,3-dihydropyridazin-1-ium trifluoroacetate] | 7.60 to 8.30 | < 5 µM
Cc1c(Cc2ccc(F)c(C(=O)N3CCN([C@H]4CCOC4)C(=O)C3)c2)n[nH]c(=O)c1C [Example 113, 6-[4-Fluoro-3-({3-oxo-4-[(3S)-tetrahydrofuran-3-yl]piperazin-1-yl}carbonyl)benzyl]-4,5-dimethylpyridazin-3(2H)-one] | 7.60 to 8.30 | 0.05 to 0.5 µM
Cc1c(Cc2ccc(F)c(C(=O)N3CC(=O)N(C4CCCC4)[C@@H](C)C3)c2)n[nH]c(=O)c1C [Example 114, 6-(3-{[(3S)-4-cyclopentyl-3-methyl-5-oxopiperazin-1-yl]carbonyl}-4-fluorobenzyl)-4,5-dimethylpyridazin-3(2H)-one] | 7.60 to 8.30 | < 0.05 µM
Cc1c(Cc2ccc(F)c(C(=O)N3CC(=O)N(C4CCCC4)[C@H](C)C3)c2)n[nH]c(=O)c1C [Example 115, 6-(3-{[(3R)-4-cyclopentyl-3-methyl-5-oxopiperazin-1-yl]carbonyl}-4-fluorobenzyl)-4,5-dimethylpyridazin-3(2H)-one] | 7.60 to 8.30 | < 5 µM
Cc1c(Cc2ccc(F)c(C(=O)N3CCN(C4CCOCC4)C(=O)C3)c2)n[nH]c(=O)c1C [Example 120, 6-(4-fluoro-3-{[3-oxo-4-(tetrahydro-2H-pyran-4-yl)piperazin-1-yl]carbonyl}benzyl)-4,5-dimethyl-3-oxo-2,3-dihydropyridazin-1-ium trifluoroacetate] | 7.60 to 8.30 | < 5 µM
Cc1c(Cc2ccc(F)c(C(=O)N3CC(=O)N(C4CCCCC4)C(C)C3)c2)n[nH]c(=O)c1C (stereo not drawn) [Example 125, 3-{3-[(4-Cyclohexyl-3-methyl-5-oxopiperazin-1-yl)carbonyl]-4-fluorobenzyl}-4,5-dimethyl-6-oxo-1,6-dihydropyridazin-1-ium trifluoroacetate] | 7.60 to 8.30 | < 0.05 µM
CCc1cc(Cc2ccc(F)c(C(=O)N3CCN(C4CCCOC4)C(=O)C3)c2)n[nH]c1=O (stereo not drawn) [Example 133, 4-ethyl-6-(4-fluoro-3-{[3-oxo-4-(tetrahydro-2H-pyran-3-yl)piperazin-1-yl]carbonyl}benzyl)-3-oxo-2,3-dihydropyridazin-1-ium trifluoroacetate] | 7.60 to 8.30 | 0.05 to 0.5 µM
CCc1cc(Cc2ccc(F)c(C(=O)N3CCN(CC(F)(F)F)C(=O)C3)c2)n[nH]c1=O [Example 134, 4-ethyl-6-(4-fluoro-3-{[3-oxo-4-(2,2,2-trifluoroethyl)piperazin-1-yl]carbonyl}benzyl)-3-oxo-2,3-dihydropyridazin-1-ium trifluoroacetate] | 7.60 to 8.30 | < 5 µM
